The subject of one assay is Staphylococcus aureus. The conditions noted are these: cited from earlier work; for MIC50 / MIC90: unit assumed.
For the next assay, the system named is Mycoplasma hominis. The conditions noted are these: cited from earlier work.
A further assay relates to Mycoplasma pneumoniae. The note with it: cited from earlier work.
The next assay deals with Streptococcus pneumoniae. The note with it: in µg/mL (unit assumed); cited from earlier work.
A further assay deals with Streptococcus pyogenes. The note with it: in µg/mL (unit assumed); cited from earlier work.
In a further assay the test system is Bacteroides fragilis. The conditions noted are these: cited from earlier work.
In a further assay the test system is Enterococcus faecium. The note with it: unit assumed; cited from earlier work.
The test system of another assay is Listeria monocytogenes. The note with it: unit assumed; cited from earlier work.
The test system of a further assay is Streptococcus agalactiae. The note with it: cited from earlier work.
The subject of another assay is Bacillus spp. The conditions noted are these: cited from earlier work.
Another assay concerns Haemophilus influenzae. The conditions noted are these: in µg/mL (unit assumed), cited from earlier work.
In another assay the test system is Campylobacter jejuni. The conditions noted are these: in µg/mL (unit assumed); cited from earlier work.
Another assay has as its system Streptococcus spp. The note with it: unit assumed; cited from earlier work.
Assay [1] concerns Branhamella (Moraxella) catarrhalis. The note with it: Branhamella (Moraxella) catarrhalis (β-lactamase producer); in µg/mL (unit assumed); cited from earlier work.
The test system of another assay is Enterococcus spp. The note with it: unit assumed; cited from earlier work.
A further assay relates to Neisseria gonorrhoeae. The conditions noted are these: in µg/mL (unit assumed), cited from earlier work.
The subject of assay [2] is Haemophilus parainfluenzae. The note with it: cited from earlier work.
In a further assay the test system is Campylobacter pylori. The conditions noted are these: cited from earlier work.
Assay [3] has as its system Bordetella bronchiseptica. The note with it: cited from earlier work.
A further assay deals with Neisseria meningitidis. The note with it: cited from earlier work.
The subject of the next assay is Borrelia burgdorferi. The note with it: unit assumed; cited from earlier work.
Another assay has as its system Haemophilus ducreyi. The conditions noted are these: unit assumed; cited from earlier work.
Assay [4] relates to human peripheral blood mononuclear cells stimulated by N. meniningititis lipo-oligosaccharide (LOS). As to the kind of experiment: LOS stimulation of human peripheral blood mononuclear cells. It is filed as cell-based. The note with it: baculovirus culture supernatants, N-terminal tagged proteins, 10 ng/ml N. meniningititis LOS.
The test system of a further assay is LOS. The assay is described as follows: Limulus amebocyte lysate assay, detected LOS. It is filed as biochemical. The note with it: proteins from cell free in vitro translation (RTS) or HeLa supernatants, dilutions 1:1 to 1:8; 0.1 ng/ml LOS.
Assay [5] has as its system TLR4 mediated signaling in human umbilical vein endothelial cells (HUVECS). As to the kind of experiment: LOS stimulated IL-8 release from HUVECS. It is filed as cell-based. The note with it: HUVECs treated overnight with LOS aggregates (3 ng/ml), soluble CD14 (250 ng/ml), LBP (100 ng/ml); ASL washings or supernatants of transfected 293 cells. From the text:
FIGS. 2A-2B. Effects of airway surface liquid (ASL), PLUNC, and LPLUNC1 on TLR4 mediated signaling in human umbilical vein endothelial cells (HUVECS). HUVECS in a 24 well dish were exposed to LOS from N. Meningitidis overnight in the presence of SCD14 and LBP. […] Control=media alone. […] Control cells were transfected with a plasmid expressing GFP. The transfection efficiency, based on GFP expression was >75%.
Alternatively, the inventors also consider the possibility that the properties of the proteins may be LBP-like and that their function may depend on the available concentrations. The ability of ASL to inhibit TLR4-mediated signaling in response to N. meningitis lipooligosaccharide (LOS) was tested in human umbilical vein endothelial cells (HUVECs) (Giardina et al., 2001). ASL secretions were recovered from the apical surface of primary cultures of human airway epithelia grown in serum free media by washing the surface with PBS. As show in FIG. 2A, HUVECs treated overnight with LOS aggregates (3 ng/ml) in the presence of soluble CD14 (250 ng/ml) and LBP (100 ng/ml) released significant quantities of IL-8 into the cell culture media. […] To determine whether PLUNC and/or LPLUNC1 have similar effects on TLR4 signaling, the inventors expressed their cDNAs in 293 cells grown in serum free media and harvested supernatants 48 hr following transfection.

Assay [6] is classed as binding, N. meningitidis. The conditions noted are these: recombinant LPLUNC1 C-terminal 6HIS incubated with 14C-LOS for 1 hr; versus Ad empty control supernatant.
Assay [7] concerns endotoxin from E. coli 0111:B4. The assay is described as follows: Limulus amebocyte lysate assay, endotoxin spiked with serial dilutions. The conditions noted are these: 30 ng E. coli endotoxin/well spiked with serial dilutions of ASL washings or supernatant from LPLUNC1 transfected 293 cells. It is filed as biochemical. As for the experimental part: FIG. 3. ASL and LPLUNC1 inhibit endotoxin activity in the Limulus amebocyte lysate assay. Endotoxin activity contrasted in control media (closed circles, 30 ng E. coli endotoxin/well), or 30 ng endotoxin samples spiked with serial dilutions of ASL washings (closed squares) or cell culture supernatant from LPLUNC1 transfected 293 cells (closed diamonds). 10 EU=1 ng endotoxin.
As confirmation of the endotoxin binding activities of ASL secretions and expressed LPLUNC1, an additional assay was performed. The Limulus amebocyte lystate assay (QCL-1000; BioWhittaker, Walkersville, Md.) was used to determine if these samples inhibited endotoxin activity in this extremely sensitive laboratory test. Lyophilized standard endotoxin from E. coli 0111:B4 in sterile water (chromogenic substrate) was spiked with serial dilutions of ASL washings, or supernatants from LPLUNC1 transfected cells. Endotoxin concentrations were determined by measuring the change in absorbance at 405 nm, as described previously (Thorne et al., 1999).

Setting [8] is: Haemophilus influenzae (non β-lactamase producer).
Setting [9] is: Haemophilus influenzae (penicillin resistant).
Setting [10] is: Haemophilus influenzae (penicillin susceptible).
The mark [11] stands for this setting: Haemophilus influenzae (β-lactamase producer).
The mark [12] stands for this setting: Staphylococcus aureus (penicillin susceptible).
The mark [13] stands for this setting: Neisseria gonorrhoeae (non β-lactamase producer).

≈ marks a conversion by molar mass, not a printed value. Where “and” joins values, the source holds several entries; their conditions need not be identical. Identical values can stand only once. Entries after “also recorded” stand apart in the source; their conditions may differ. Like-named read-outs stand apart in the source and are kept apart here.

With `CCC[C@@H]1C[C@@H](C(=O)N[C@@H]([C@H]2O[C@H](SC)[C@H](O)[C@@H](O)[C@H]2O)[C@@H](C)O)N(C)C1` [LINCOMYCIN, lincomycin], the “Range (of MIC)” value is 0.5-512 with Staphylococcus aureus (Staphylococcus aureus, in µg/mL (unit assumed)); 0.5-16 in the assay on Mycoplasma hominis (in µg/mL (unit assumed)); 2-32 in the assay on Mycoplasma pneumoniae (in µg/mL (unit assumed)). For the same molecule, the MIC50 is 1 µg/mL (≈ 2.46 µM) in the assay with Staphylococcus aureus (Staphylococcus aureus), 2 µg/mL (≈ 4.92 µM) with Mycoplasma hominis (unit assumed) and 8 µg/mL (≈ 19.7 µM) in the assay with Mycoplasma pneumoniae (unit assumed). The MIC90 is 1 µg/mL (≈ 2.46 µM) with Staphylococcus aureus (Staphylococcus aureus), 4 µg/mL (≈ 9.84 µM) in the assay on Mycoplasma hominis (unit assumed) and 32 µg/mL (≈ 78.7 µM) in the assay with Mycoplasma pneumoniae (unit assumed).

As for `CC[C@H]1OC(=O)[C@H](C)[C@@H](O[C@H]2C[C@@](C)(OC)[C@@H](O)[C@H](C)O2)[C@H](C)[C@@H](O[C@@H]2O[C@H](C)C[C@H](N(C)C)[C@H]2O)[C@](C)(O)C[C@@H](C)C(=O)[C@H](C)[C@@H](O)[C@]1(C)O` [ERYTHROMYCIN, erythromycin], the MIC50 was 0.06 and 0.03 in the assay on Streptococcus pneumoniae; 0.06 and 0.03 with Streptococcus pyogenes; 1 µg/mL (≈ 1.36 µM) in the assay on Bacteroides fragilis (unit assumed); 1 µg/mL (≈ 1.36 µM) in the assay on Enterococcus faecium; 0.5 µg/mL (≈ 0.681 µM) in the assay with Listeria monocytogenes; 0.03 µg/mL (≈ 0.0409 µM) with Streptococcus agalactiae (unit assumed). The MIC50 in the assay with Haemophilus influenzae (setting [8]) is 2 and 4; in the assay on Haemophilus influenzae (setting [9]) it was 8; in the assay with Haemophilus influenzae (setting [10]), 8; in the assay with Haemophilus influenzae (setting [11]), 4 and 2; with Haemophilus influenzae (Haemophilus influenzae) it was 2 and 1; with Streptococcus spp. it was 0.03 µg/mL (≈ 0.0409 µM). Besides, the MIC50 was 0.5 µg/mL (≈ 0.681 µM) with Staphylococcus aureus (Staphylococcus aureus (methicillin susceptible)); 0.5 µg/mL (≈ 0.681 µM) in the assay on Staphylococcus aureus (setting [12]); 0.5 µg/mL (≈ 0.681 µM) in the assay on Staphylococcus aureus (Staphylococcus aureus); 2 µg/mL (≈ 2.73 µM) in the assay with Enterococcus spp.; 2 µg/mL (≈ 2.73 µM) in assay [2] (unit assumed); 0.5 µg/mL (≈ 0.681 µM) in the assay with Campylobacter pylori (unit assumed). The MIC50 in [3] (unit assumed) is 8 µg/mL (≈ 10.9 µM); with Neisseria meningitidis (unit assumed), 1 µg/mL (≈ 1.36 µM); with Borrelia burgdorferi it was 0.03 µg/mL (≈ 0.0409 µM); with Haemophilus ducreyi, 4 ng/mL (≈ 0.00545 µM). Further, the MIC90 was 0.03 and 0.06 in the assay with Streptococcus pneumoniae; 8 µg/mL (≈ 10.9 µM) in the assay with Bacteroides fragilis (unit assumed); 0.03 µg/mL (≈ 0.0409 µM) with Streptococcus agalactiae (unit assumed); 2 µg/mL (≈ 2.73 µM) in the assay on Bacillus spp. (unit assumed); 4 and 8 in the assay with Haemophilus influenzae (setting [8]); 16 in the assay with Haemophilus influenzae (setting [9]). The MIC90 with Haemophilus influenzae (setting [10]) was 16; in the assay with Haemophilus influenzae (setting [11]), 8 and 4; with Haemophilus influenzae (Haemophilus influenzae), 2 and 4; in the assay with Campylobacter jejuni, 4 and 2; in the assay on Staphylococcus aureus (setting [12]), 0.5 µg/mL (≈ 0.681 µM); in the assay on Neisseria gonorrhoeae (setting [13]) it was 1 and 2. Moreover, the MIC90 in the assay on Neisseria gonorrhoeae (Neisseria gonorrhoeae (β-lactamase producer)) is 2 and 4; in the assay with Neisseria gonorrhoeae (Neisseria gonorrhoeae) it was 1; in [2] (unit assumed), 4 µg/mL (≈ 5.45 µM); in assay [3] (unit assumed), 32 µg/mL (≈ 43.6 µM); with Neisseria meningitidis (unit assumed), 8 µg/mL (≈ 10.9 µM); with Borrelia burgdorferi it was 0.06 µg/mL (≈ 0.0818 µM). Further, the MIC90 with Haemophilus ducreyi is 0.06 µg/mL (≈ 0.0818 µM). Moreover, the “Range (of MIC)” value in the assay with Streptococcus pneumoniae is 0.03-0.25 and 0.015-0.06 and 0.015-0.25; with Bacteroides fragilis (in µg/mL (unit assumed)), 0.25-16; with Streptococcus agalactiae (in µg/mL (unit assumed)) it was 0.03-0.25 and 0.015-0.06; in the assay with Bacillus spp. (in µg/mL (unit assumed)) it was 0.03-2; with Haemophilus influenzae (setting [9]), 8-16; in the assay with Haemophilus influenzae (setting [10]), 0.25-16. In addition, the “Range (of MIC)” value in the assay on Haemophilus influenzae (Haemophilus influenzae) was 0.5-8; with Campylobacter jejuni it was 0.5-8; in assay [1], 0.06-1 and 0.03-0.25 and 0.06-8; in the assay with Neisseria gonorrhoeae (setting [13]), 0.03-2 and 0.015-4; in the assay on Neisseria gonorrhoeae (Neisseria gonorrhoeae), 0.0075-8; in assay [2] (in µg/mL (unit assumed)) it was 0.5-8. For the same molecule, the “Range (of MIC)” value in the assay on Campylobacter pylori (in µg/mL (unit assumed)) is 0.25-16; in [3] (in µg/mL (unit assumed)), 4-32; in the assay with Neisseria meningitidis (in µg/mL (unit assumed)) it was 0.5-8.

B1: PLUNC: human palate, lung, and nasal epithelium clone protein, 256 amino acids; tested as recombinant culture supernatant or in vitro translation product (protein, UniProt Q9NP55 20-256, looked up)
BPI fold-containing family A …: QFGGLPVPLDQTLPLNVNPALPLSPTGLAGSLTNALSNGLLSGGLLGILENLPLLDILKPGGGTSGGLLGGLLGKVTSVIPGLNNIIDIKVTDPQLLELGLVQSPDGHRLYVTIPLGIKLQVNTPLVGASLLRLAVKLDITAEILAVRDKQERIHLVLGDCTHSPGSLQISLLDGLGPLPIQGLLDSLTGILNKVLPELVQGNVCPLVNEVLRGLDITLVHDIVNMLIHGLQFVIKV
Turning to B1, the “effect on responsiveness of PBMC to LOS stimulation” value in [4] is listed as “LBP-like pro-inflammatory activity”; in assay [4] (listed as SPLUNC1), “enhanced the LOS signaling”. Moreover, the “detectable level of LOS” value in the assay on LOS was “dose-dependent decrease in detected LOS”. In addition, the “effect on LOS stimulated IL-8 release from HUVECS” value in [5] was “dampened IL-8 secretion”.

B2: LPLUNC1: human long PLUNC protein, 484 amino acids; tested as recombinant culture supernatant, in vitro translation product or 6HIS tagged protein (protein, UniProt Q8TDL5 22-484, looked up)
BPI fold-containing family B …: TLSPTAVLILGPKVIKEKLTQELKDHNATSILQQLPLLSAMREKPAGGIPVLGSLVNTVLKHIIWLKVITANILQLQVKPSANDQELLVKIPLDMVAGFNTPLVKTIVEFHMTTEAQATIRMDTSASGPTRLVLSDCATSHGSLRIQLLHKLSFLVNALAKQVMNLLVPSLPNLVKNQLCPVIEASFNGMYADLLQLVKVPISLSIDRLEFDLLYPAIKGDTIQLYLGAKLLDSQGKVTKWFNNSAASLTMPTLDNIPFSLIVSQDVVKAAVAAVLSPEEFMVLLDSVLPESAHRLKSSIGLINEKAADKLGSTQIVKILTQDTPEFFIDQGHAKVAQLIVLEVFPSSEALRPLFTLGIEASSEAQFYTKGDQLILNLNNISSDRIQLMNSGIGWFQPDVLKNIITEIIHSILLPNQNGKLRSGVPVSLVKALGFEAAESSLTKDALVLTPASLWKPSSPVSQ
On to B2, for which the “effect on responsiveness of PBMC to LOS stimulation” value in assay [4] is on record as “BPI-like inhibitory effects; also recorded: dampened the proinflammatory effect of LOS”. Besides, the “14C-LOS recovered with nickel resin” value in assay [6] is “Significantly more LOS was recovered”. The “detectable level of LOS” value in the assay with LOS is “dose-dependent decrease in detected LOS”. Moreover, in assay [7], the “inhibition of endotoxin activity” value is listed as “inhibited endotoxin activity in a dose dependent fashion”. Moreover, the “effect on LOS stimulated IL-8 release from HUVECS” value in assay [5] is “dampened IL-8 secretion”.

(Values after US20050192221A1, “Methods and compositions related to plunc polypeptides” (priority 2003, published 2005).)
